We go through nine substances from patent publication US7563882B2, “Polynucleotides encoding antibodies that bind to the C35 polypeptide” (University of Rochester, priority 2002, dated 2009).

What all share (type): cell-based, human
One experiment deals with H16.A2. In words: 51Cr release, CD8+ cells stimulated with K104-V113 peptides (Example 17). The following applies: for Raw Chromium Values: target H16.A2.
The subject of another experiment is 21NT. The experiment is described as above. The following applies: target 21NT, CD8+ cells of donor stimulated with peptide pulsed DCs; for Raw Chromium Values: Table 13; for Percentage of Target Cells Lysed: Table 14.
The test system of another experiment is 21NT.A2. The experiment is described as above. The following applies: target 21NT.A2.
The subject of the next experiment is K562. Described as above. The following applies: for Raw Chromium Values: target K562.
The test system of the next experiment is PCl-13. The description is as above. The following applies: target PCl-13, CD8+ cells of donor stimulated with peptide pulsed DCs; for Raw Chromium Values: Table 13; for Percentage of Target Cells Lysed: Table 14.
The next experiment relates to PCl-13 K104-V113-Ser. The description is as above. The conditions noted are these: CD8+ cells of donor stimulated with peptide pulsed DCs; for Raw Chromium Values: Table 13, target PCl-13 K104-V113-Ser; for Percentage of Target Cells Lysed: Table 14, target Pcl-13 K104-V113-Ser.
The subject of the next experiment is 21NT.A2-Ser. Described as above. The following applies: target 21NT.A2-Ser, effector to target 30:1, CD8+ cells 12 days in IL-2 after fourth stimulation; for Raw Chromium Values: Table 15 (repeat); for Percentage of Target Cells Lysed: Table 16 (repeat).
In another experiment the test system is Mel 1700. The experiment is described as above. The following applies: target Mel 1700, effector to target 30:1, CD8+ cells 12 days in IL-2 after fourth stimulation; for Raw Chromium Values: Table 15 (repeat); for Percentage of Target Cells Lysed: Table 16 (repeat).
Another experiment has as its system Mel 501. The description is as above. The following applies: target Mel 501, effector to target 30:1, CD8+ cells 12 days in IL-2 after fourth stimulation; for Raw Chromium Values: Table 15 (repeat); for Percentage of Target Cells Lysed: Table 16 (repeat).
For another experiment, the system named is Mel F002. Described as above. The following applies: for Raw Chromium Values: Table 15 (repeat), target Mel F002, effector to target 30:1, CD8+ cells 12 days in IL-2 after fourth stimulation; for Percentage of Target Cells Lysed: Table 16 (repeat), effector to target 30:1, CD8+ cells 12 days in IL-2 after fourth stimulation.
Another experiment relates to Mel 1359. The experiment is described as above. The conditions noted are these: target Mel 1359, effector to target 30:1, CD8+ cells 12 days in IL-2 after fourth stimulation; for Raw Chromium Values: Table 15 (repeat); for Percentage of Target Cells Lysed: Table 16 (repeat).
The next experiment deals with EBV-B target cells. Briefly: C35 peptide mediated T cell lysis of peptide pulsed EBV-B cells (Table 10). The conditions noted are these: for % Lysis EBV-B cell Target: target pulsed with peptide.
[1] abbreviates: Table 13, CD8+ cells of donor stimulated with peptide pulsed DCs.
Setting [2] is: Table 14, CD8+ cells of donor stimulated with peptide pulsed DCs.
[3] abbreviates: Table 15 (repeat), effector to target 30:1, CD8+ cells 12 days in IL-2 after fourth stimulation.
The mark [4] stands for this setting: Table 16 (repeat), effector to target 30:1, CD8+ cells 12 days in IL-2 after fourth stimulation.
Setting [5] is: T cell clones from donor with A3, A66, B8 and B41 HLA haplotypes.
The mark [6] stands for this setting: T cell clone #72, donor (A2, A3; B18, B44).
Where [7] appears, read: T cell clone #75, donor (A2, A3; B18, B44).
Setting [8] is: T cell clone #104, donor (A2, A3; B18, B44).
The mark [9] stands for this setting: T cells from donor with A2, A3, B18, B44 HLA haplotypes raised against 9mer 22-30.

Regarding “K104-V113-cys-cys: K104-V113 peptide fragment of C35 containing a cysteinylated cysteine at amino acid position 112”, the “Raw Chromium Values” with H16.A2 (setting [1]) came out at 440; with H16.A2 (setting [3]), 1024; in the experiment with 21NT, 171; in the experiment on 21NT.A2 (setting [1]), 1329; with 21NT.A2 (setting [3]), 2337; with K562 (setting [1]) it was 287. Also, the “Raw Chromium Values” is 1713 in the experiment with K562 (setting [3]); 486 in the experiment with PCl-13; 1772 in the experiment with PCl-13 K104-V113-Ser; 4474 in the experiment with 21NT.A2-Ser; 1857 in the experiment with Mel 1700; 4474 with Mel 501. Further, the “Raw Chromium Values” amounted to 1713 with Mel F002 and 2299 in the experiment with Mel 1359. Moreover, the “Percentage of Target Cells Lysed” value was 0.2% with H16.A2 (setting [2]); 5.8% in the experiment with H16.A2 (setting [4]); −0.1% in the experiment with 21NT; 20.1% in the experiment on 21NT.A2 (setting [2]); 19.1% in the experiment with 21NT.A2 (setting [4]); 0.9% in the experiment on K562 (setting [2]). Besides, the “Percentage of Target Cells Lysed” value with K562 (setting [4]) is 16.2%; with PCl-13 it was −1.7%; with PCl-13 K104-V113-Ser, 35.3%; in the experiment with 21NT.A2-Ser it was 51.9%; in the experiment with Mel 1700, 7.2%; in the experiment on Mel 501, 21.2%. Besides, the figures for the “Percentage of Target Cells Lysed” value in the experiment with Mel F002 and with Mel 1359 were 11.2% and 2.5%, respectively.
Take GGFPYEKDL [peptide 81-89]: in the experiment with EBV-B target cells (setting [5]), the “lytic activity on EBV-B target cells pulsed with peptide” value was 40.3%.
Regarding KITNSRPPCV [K104-V113], the “Raw Chromium Values” with H16.A2 (setting [1]) amounted to 483; with H16.A2 (setting [3]) it was 948; in the experiment on 21NT, 137; in the experiment with 21NT.A2 (setting [1]), 1429; in the experiment with 21NT.A2 (setting [3]), 2753; in the experiment on K562 (setting [1]), 311. Besides, the “Raw Chromium Values” in the experiment on K562 (setting [3]) amounted to 1156; in the experiment with PCl-13, 804; in the experiment on PCl-13 K104-V113-Ser, 1403; in the experiment on 21NT.A2-Ser it was 3729; in the experiment on Mel 1700, 1964; with Mel 501, 3729. Besides, the entries for the “Raw Chromium Values” with Mel F002 and in the experiment on Mel 1359 were 1156 and 2758, respectively. The “Percentage of Target Cells Lysed” value with H16.A2 (setting [2]) is on record as 0.9%; in the experiment with H16.A2 (setting [4]), 4.3%; with 21NT, −1.5%; in the experiment with 21NT.A2 (setting [2]) it was 22.4%; with 21NT.A2 (setting [4]), 24.6%; in the experiment with K562 (setting [2]) it was 2.0%. Besides, the “Percentage of Target Cells Lysed” value in the experiment on K562 (setting [4]) stood at 8.0%; with PCl-13, 7.6%; with PCl-13 K104-V113-Ser, 24.8%; in the experiment with 21NT.A2-Ser, 41.5%; with Mel 1700 it was 8.9%; with Mel 501, 36.0%. Moreover, the “Percentage of Target Cells Lysed” value with Mel F002 turned out to be 15.7%; in the experiment on Mel 1359, 7.0%.
For the substance “peptide 17-31: 15mer corresponding to amino acids 17-31 of C35 (SEQ ID NO:2) (VEPGSGVRIVVEYCE; listed as Homo sapiens)”, the “% Lysis EBV-B cell Target” value in the experiment with EBV-B target cells (setting [6]) came out at 0.5%; in the experiment with EBV-B target cells (setting [7]), 1.2%; in the experiment with EBV-B target cells (setting [8]), 6.4%. Besides, in the experiment with EBV-B target cells (setting [9]), the “lytic activity on EBV-B target cells pulsed with peptide” value is “minimal lysis”.
Regarding IEINGQLVF [peptide 67-75], the “lytic activity on EBV-B target cells pulsed with peptide” value with EBV-B target cells (setting [5]) is given as 54.9%.
For GVRIVVEYC [peptide 22-30], the “% Lysis EBV-B cell Target” value is recorded as 72.8% in the experiment on EBV-B target cells (setting [6]), 56.8% in the experiment on EBV-B target cells (setting [7]) and 100.3% in the experiment on EBV-B target cells (setting [8]). Moreover, the “lytic activity on EBV-B target cells pulsed with peptide” value in the experiment on EBV-B target cells (setting [9]) is “very active”.
Turning to “KITNSRPPSV (synthetic analog of human C35 epitope) [K104-V113-Ser]”, the “Raw Chromium Values” in the experiment on H16.A2 (setting [1]) is listed as 584; with H16.A2 (setting [3]), 1018; with 21NT, 185; with 21NT.A2 (setting [1]) it was 3228; in the experiment on 21NT.A2 (setting [3]), 4957; in the experiment with K562 (setting [1]) it was 323. Moreover, the “Raw Chromium Values” is listed as 974 in the experiment with K562 (setting [3]); 581 in the experiment on PCl-13; 2588 in the experiment with PCl-13 K104-V113-Ser; 4762 with 21NT.A2-Ser; 2951 with Mel 1700; 4762 in the experiment on Mel 501. Also, the entries for the “Raw Chromium Values” in the experiment on Mel F002 and in the experiment on Mel 1359 were 974 and 2357, respectively. The “Percentage of Target Cells Lysed” value in the experiment on H16.A2 (setting [2]) is on record as 2.6%; with H16.A2 (setting [4]), 5.6%; with 21NT, 0.5%; with 21NT.A2 (setting [2]), 63.2%; in the experiment on 21NT.A2 (setting [4]), 53.4%; with K562 (setting [2]) it was 2.5%. Also, the “Percentage of Target Cells Lysed” value in the experiment with K562 (setting [4]) came out at 5.3%; with PCl-13, 1.1%; in the experiment on PCl-13 K104-V113-Ser it was 58.7%; in the experiment with 21NT.A2-Ser, 56.0%; with Mel 1700, 24.1%; in the experiment on Mel 501, 45.3%. For the same substance, the “Percentage of Target Cells Lysed” value in the experiment on Mel F002 was 15.1%; in the experiment with Mel 1359, 3.0%.
As to “KITNSRPPAV (synthetic analog of human C35 epitope) [K104-V113-Ala]”, the “Raw Chromium Values” in the experiment with H16.A2 (setting [1]) turned out to be 479; in the experiment on H16.A2 (setting [3]), 829; in the experiment on 21NT, 155; with 21NT.A2 (setting [1]), 763; in the experiment on 21NT.A2 (setting [3]), 1365; with K562 (setting [1]), 246. Moreover, the “Raw Chromium Values” in the experiment with K562 (setting [3]) is reported as 815; in the experiment on PCl-13, 468; in the experiment on PCl-13 K104-V113-Ser, 746; with 21NT.A2-Ser it was 2423; with Mel 1700, 1543; with Mel 501 it was 2423. Moreover, the “Raw Chromium Values” with Mel F002 is 815; with Mel 1359, 3050. In addition, the “Percentage of Target Cells Lysed” value with H16.A2 (setting [2]) is given as 0.9%; in the experiment on H16.A2 (setting [4]), 2.0%; in the experiment with 21NT, −0.7%; in the experiment on 21NT.A2 (setting [2]) it was 7.3%; in the experiment on 21NT.A2 (setting [4]), 6.4%; in the experiment with K562 (setting [2]), −0.9%. Moreover, the “Percentage of Target Cells Lysed” value in the experiment on K562 (setting [4]) is given as 2.9%; with PCl-13 it was −2.2%; in the experiment with PCl-13 K104-V113-Ser it was 6.0%; in the experiment on 21NT.A2-Ser, 22.5%; in the experiment on Mel 1700, 2.4%; in the experiment on Mel 501, 11.1%. Further, the “Percentage of Target Cells Lysed” value is given as 7.6% with Mel F002 and 9.9% in the experiment with Mel 1359.
Turning to QLVFSKLENGGFPYE [peptide 72-86], the “% Lysis EBV-B cell Target” value with EBV-B target cells (T cell clone #46, donor (A2, A3; B18, B44)) came to 78.5%. Moreover, the “lytic activity on EBV-B cells pulsed with peptide” value in the experiment on EBV-B target cells (T cell clones from donor with A2, A3, B18, B44 HLA haplotypes) is on record as 78.5%.
